Source: US9636299B2, “Method for treating diabetic retinopathy” (XAVIER UNIVERSITY OF LOUISIANA, priority 2012, dated 2017)
Residues, ends and D or L forms follow the SMILES beside them.

Assays:
MMP2 = test: Laser photocoagulation-induced retinal injury in mice, MMP2 real-time RT-PCR; format: in vivo, mouse; settings: apoEdp 40 mg/kg intraperitoneally once each day for 7 days, vs mice without apoEdp
Description: (§1) Laser Photocoagulation-Induced Retinopathy. Female mice (C57BL/6J), aged 6-8 weeks, were used for retinal laser photocoagulation studies. The mice were treated and maintained in accordance with the ARVO Statement for the Use of Animals in Ophthalmic and Vision Research. The mice were anesthetized by intraperitoneal injection of a mixture of ketamine (100 mg/kg; Warner Lambert Co., Morris Plains, N.J.) and xylazine (10 mg/kg; Bayer AG, Leverkusen, Germany), and the pupils dilated with 2.5% tropicamide (Alcon, Fort Worth, Tex.). […]
(§2) RNA Extraction, Reverse Transcription, & PCR. […] Gene expression was measured at RNA level per 100 ng of total RNA using one-step RT-PCR kit (Bio-Rad, Hercules, Calif.). Four host genes (mouse GAPDH, mouse MMP2, mouse HPSE-1 (heparanase-1), and mouse MMP9) were analyzed to confirm relative quantitative expression levels. The primer pairs used were specifically designed and synthesized by Qiagen GmbH, Hilden, Germany (Quantitech Primer assay kit, for each host gene, catalog numbers QT01658692, QT00088396, QT00009555, and QT00040040, respectively). One-step Real-time quantitative RT-PCR reactions were performed in a 50-μL volume containing a solution of 1× supermix (iQ SYBR Green; Bio-Rad, Hercules, Calif.), 1 μM mix of forward and reverse primers, and 5 μL total RNA. […] Relative quantitative expression levels were determined for each gene. […]

MMP9 = MMP9 expression in high glucose-treated hRMECs (Western blot); format: cell-based, human; settings: 30 mM glucose 72 hours, 50 or 100 μM apoEdp
Source text: Cell Culture. Primary cultures of human retina microvascular endothelial cells (hRMECs) were purchased from the Applied Cell Biology Research Institute and grown on attachment factor-coated plates in cell systems complete (CSC) medium (Cell Systems, Kirkland, Wash.) supplemented with 20% fetal bovine serum, culture boost (animal derived growth factors) and bac-off (antibiotics). The primary hRMECs were used in their passages 4 to 6. The 18-a.a. apoE mimetic peptide apoEdp (SEQ ID NO:3, Ac-LRKLRKRLLLRKLRKRLL-amide), derived from the human apolipoprotein E receptor-binding region (see SED ID NO:1) between residues 141 and 149, was synthesized (Genemed, Arlington, Tex.) with a purity of greater than 95%. The apoEdp peptide was dissolved in phosphate-buffered saline (“PBS”) at a concentration appropriate for further experimental use. […]
Western Blotting. […] The total protein concentration was determined using a BCA protein assay kit (Pierce, Rockford, Ill.). […] To ensure the equal loading of protein in each lane, each membrane was stripped and re-probed with an antibody against β-actin, and the chemiluminescence was detected as described previously. After scanning the blots with a flatbed scanner, band intensities were analyzed using ImageJ (NIH) and the relative intensity values were normalized to control values. […]

heparanase = test: Laser photocoagulation-induced retinal injury in mice, heparanase real-time RT-PCR; format: in vivo, mouse; settings: apoEdp 40 mg/kg intraperitoneally once each day for 7 days, vs mice without apoEdp
Description: as §1, §2

CC(=O)N[C@@H](CC(C)C)C(=O)N[C@@H](CCCNC(=N)N)C(=O)N[C@@H](CCCCN)C(=O)N[C@@H](CC(C)C)C(=O)N[C@@H](CCCNC(=N)N)C(=O)N[C@@H](CCCCN)C(=O)N[C@@H](CCCNC(=N)N)C(=O)N[C@@H](CC(C)C)C(=O)N[C@@H](CC(C)C)C(=O)N[C@@H](CC(C)C)C(=O)N[C@@H](CCCNC(=N)N)C(=O)N[C@@H](CCCCN)C(=O)N[C@@H](CC(C)C)C(=O)N[C@@H](CCCNC(=N)N)C(=O)N[C@@H](CCCCN)C(=O)N[C@@H](CCCNC(=N)N)C(=O)N[C@@H](CC(C)C)C(=O)N[C@@H](CC(C)C)C(N)=O [apoEdp, Ac-LRKLRKRLLLRKLRKRLL-amide] (Ac-LRKLRKRLLLRKLRKRLL-NH2)
Expression of MMP2 in retina (MMP2): dramatically reduced
High glucose-induced expression of MMP9 (MMP9): suppressed the expression
Expression of heparanase in retina (heparanase): dramatically reduced
